PubChem BioAssay (NCI)
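Cultured in 96-well plates, cells were exposed to test compound for 48 hours across five concentrations. At the TGI there is no net growth.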

Key:
Test in all cases: NCI tumour cell line growth inhibition, 48 h
KM12 colon = system: KM12 colon
HOP-92 NSCLC = system: HOP-92 NSCLC
MDA-N = system: MDA-N
A549 NSCLC = system: A549 NSCLC
OVCAR-3 ovarian = system: OVCAR-3 ovarian
HT29 colon = system: HT29 colon
UACC-257 melanoma = system: UACC-257 melanoma
SN12C renal = system: SN12C renal
NCI-H460 lung = system: NCI-H460 lung
U251 CNS = system: U251 CNS

SMILES | TGI (KM12 colon) [µM] | TGI (HOP-92 NSCLC) [µM] | TGI (MDA-N) [µM] | TGI (A549 NSCLC) [µM] | TGI (OVCAR-3 ovarian) [µM] | TGI (HT29 colon) [µM] | TGI (UACC-257 melanoma) [µM] | TGI (SN12C renal) [µM] | TGI (NCI-H460 lung) [µM] | TGI (U251 CNS) [µM]
Cc1cc(S(=O)(=O)Nc2nc3cc(-c4ccc(Cl)cc4)sc3c(=O)n2N)c(S)cc1Cl | > 100 | > 100 | > 100 | > 100 | > 100 | > 100 | > 100 | > 100 | > 100 | > 100
CCC(=O)ONC(=O)Cn1ccc([N+](=O)[O-])n1 | > 100 | > 100 | > 100 | > 100 | > 100 | > 100 | > 100 | > 100 |  | 
C[N+]12CCCCC1C(CN1C(=O)Cc3c4ccccc4c(c4ccccc34)CC1=O)CCC2 (stereo unspecified) | > 100 | > 100 | > 100 | > 100 | > 100 | > 100 | > 100 | > 100 | > 100 | > 100
CCOC(=O)NC(Nc1ccc([N+](=O)[O-])cc1)(C(F)(F)F)C(F)(F)F | > 100 | > 100 | 54.7 | > 100 | > 100 | > 100 | > 100 | > 100 | > 100 | > 100
NC(CCC(=O)NC(CSCC1C(=O)Nc2ccccc21)C(=O)NCC(=O)O)C(=O)O (stereo unspecified) | > 32.9 | 9.55 | 16.7 | 19.7 | 11.2 | 14.7 | 19.5 | 13.9 | 37.2 | 18.3
CC(C(O)Cc1ccccc1)N(C)N=Nc1ccc([N+](=O)[O-])cc1 (stereo unspecified) | 53.2 |  | 39.7 | 72 | 36.3 | 37.2 | 45.4 | 44.9 | 32.3 | 38.5
Oc1cccc(-c2nc3cc(F)ccc3s2)c1 | 34.6 |  | 61.8 | 88.5 | 43.4 | 31.7 | 34.3 | 82.7 | 55.4 | 76.7
CC(=O)NC1c2ccccc2C(C)(C)C12CCC1(CC2)OCCO1 (stereo unspecified) | > 100 |  | > 100 | > 100 |  | > 100 | > 100 | > 10 | > 10 | > 100
COc1nc2nccnc2c(=O)n1C | > 10 | > 10 | > 10 | > 10 | > 10 | > 10 | > 10 | > 10 | > 10 | > 10
CSc1cnc2ccccc2c1SC1CN(Cc2ccccc2)c2ccccc2C1=O (stereo unspecified) | > 100 | > 100 | > 100 | > 100 | > 100 | > 100 | > 100 | > 100 | > 100 | > 100
OCc1ccc(C2CC(c3ccco3)=NN2c2ccccc2)o1 (stereo unspecified) | > 100 |  |  | > 100 | > 100 | > 100 |  | > 100 | > 100 | > 100
CCN1CCC(O)(/C=C/c2ccc(C)cc2C)C(C(=O)/C=C/c2ccc(C)cc2C)C1 (stereo unspecified) |  | 3.8 | 6.26 | 11.1 | 7.84 | 5.44 | 11.5 | 7.04 | 3.32 | 11.7
CC1=C(CO)C(=O)O[C@@H]([C@@H](CO)[C@H]2CCC3C4C[C@@H](O)[C@@]5(O)CC=CC(=O)[C@]5(C)C4CC[C@@]32C)C1 (stereo partly specified) | > 100 | > 100 | > 100 | > 100 | 83.9 | > 100 | > 100 | > 100 |  | 
CC(=O)O[C@]12CCCCCC1C1(O)C(O)CCCC[C@H]12 (stereo partly specified) | > 100 |  |  | > 100 |  | > 100 | > 100 | > 100 | > 100 | > 100
O=C1/C(=C/c2ccc(Cl)cc2)CSc2ccccc21 | > 100 | 90.3 | 61.7 | > 100 | 49.1 | 49.6 | 37.4 | 43.4 | > 100 | 24.6
COc1ccc2cc(C(C)C(=O)N3CCOC3=O)ccc2c1 (stereo unspecified) | > 100 | > 100 | > 100 | > 100 | > 100 | > 100 | > 100 | > 100 | > 100 | > 100
C=CCOc1ccc(C2(O)c3ccccc3C3=NCCCN32)cc1 (stereo unspecified) | > 100 | > 100 | > 63.2 | > 100 | > 100 | > 100 | 52.7 | > 100 | > 100 | > 100
N#CC1=C(N)N(c2ccccc2)C(c2ccccc2)C1(C#N)C#N (stereo unspecified) | 30.9 |  | 41 | 45.2 | 34.6 | 30.2 | 34.9 | 36.6 |  | 32.4
COC(=O)C1=C(C)NC(C)=C(C(=O)OC)C1c1nc2sccn2c1[N+](=O)[O-] | > 100 | > 100 |  | > 100 | > 100 |  | > 100 | > 100 | > 100 | > 100
Nc1ccn(C2OC(CO)C(O)C2O)c(=O)c1 (stereo unspecified) | > 625 | > 625 |  | > 625 | > 625 | > 625 |  | 381 | > 625 | > 625
S=C(Nc1ccc2c(c1)oc1ccccc12)c1cccnc1 | > 100 | > 100 | > 100 | > 100 | 67.3 | > 100 |  | > 100 | > 100 | 89.7
Nc1nc(Cl)cc(NCC2(CO)CCCC2)n1 | > 100 | > 100 | > 100 | > 100 | > 100 | > 100 | > 100 | > 100 | > 100 | > 100
Cc1cc(NCc2ccccc2)c2ccccc2[n+]1CCCCCCCCCC[n+]1c(C)cc(NCc2ccccc2)c2ccccc21 | 0.796 | 2.25 | 1.4 | 4.39 |  | 1.63 | 1.31 | 1.08 |  | 0.795
